Patent publication EP4748847A1, “PEPTIDE COMPLEX HAVING VEGFR -2 AGONIST ACTIVITY” (Peptidream Inc, priority 2023, dated 2025)
*1 amine or outer side, *2 acyl side, *3 side chain or, on linkers, in order; H or OH if unused. Where a SMILES comes first, the peptide text is derived from it. Bridges are numbered along the chain shown (N, C = ends). Roman numbers before positions name the chains, in order. [ ]: non-standard residue; d: D form. CO(CH2)2(OCH2CH2)17CO = O=C(CCOCCOCCOCCOCCOCCOCCOCCOCCOCCOCCOCCOCCOCCOCCOCCOCCOCCC(=O)[*:2])[*:1]; X1 = O=C(OCCOCCOCCOCCOCCOCCOCCOCCOCCOCCOCCOCCOCCOCCOCCOCCOC(=O)[*:2])[*:1]; X2 = O=C(OCCOCCOCCOCCOCCOCCOCCOCCOCCOCCOCCOCCOC(=O)[*:2])[*:1]; Phe(4-guanidino) = N=C(N)Nc1ccc(C[C@H](N)C(=O)O)cc1; hTyr = N[C@@H](CCc1ccc(O)cc1)C(=O)O; Hyp = O=C(O)[C@@H]1C[C@@H](O)CN1; tBuAla = CC(C)(C)C[C@H](N)C(=O)O; Tle = CC(C)(C)[C@H](N)C(=O)O

Tests used:
VEGFR-2 = target: T1, VEGFR-2 (Homo sapiens, UniProt P35968); assay: pVEGFR AlphaLISA assay (VEGFR-2 phosphorylation, p-Tyr1175) in HUVECs; type: cell-based; conditions: 10 minutes stimulation, % activity, maximum VEGF165a signal = 100%, unstimulated = 0%
T1 construct: endogenous in cells; host or cells: HUVEC
Method: To evaluate the VEGFR-2 activation ability of the VEGFR-2 agonist peptides of the present invention, VEGFR-2 phosphorylation was verified. HUVECs were cultured using EGM™ -2 Endothelial Cell Growth Medium-2 BulletKit (LONZA; CC-3162). After detaching cells using Tryple (Thermo Fisher Scientific), they were seeded into a 96-well PDL-coated plate (Corning: 354461) at a density of 24,000 cells per well and cultured for 2 days. For starvation, the medium was replaced with EBM-2 medium (LONZA) containing 0.5% FBS (Thermo Fisher Scientific), 0.1% heparin (included with the above LONZA CC-3162), and 0.1% gentamicin (Nacalai), and the cells were cultured for 18 hours. Subsequently, Recombinant Human VEGF165a Protein (R&D Systems) or the peptide was added, and the cells were cultured in a CO2 incubator at 37°C. After 10 minutes of stimulation, cells were lysed using the Lysis Buffer included in the AlphaLISA SureFire Ultra VEGFR-2 (p-Tyr1175) Assay Kit (PerkinElmer) to lyse the cells. The procedure was performed according to the kit protocol, and signal detection was performed using a SpectraMax Paradigm multimode microplate reader (Molecular Devices). The obtained signals were analyzed using GraphPad Prism, and % activity was calculated with the maximum signal induced by VEGF165a set as 100% and the unstimulated control as 0%.
The VEGF165a concentration was evaluated at five points (0.08, 0.31, 1.25, 5, 20 nM) using 1/4-fold dilutions starting from 20 nM to determine the maximum value (100%). Peptide concentrations tested were: 3.2, 16, 80 nM for dimer structure number 1; 10, 100 nM for dimer structures numbers 2-41; and 1.25, 5, 20 nM for dimer structures numbers 42-57. […]
Peptides showing 50% or more activity at 10 nM were designated 2-A, those showing 50% or more activity at 100 nM were designated 2-B, and those showing 1% or more but less than 50% activity at 100 nM were designated 2-C.
Peptides showing 50% or more activity at 1.25 nM were designated 3-A, those showing 50% or more activity at 5 nM were designated 3-B, those showing 50% or more activity at 20 nM were designated 3-C, and those showing 1% or more but less than 50% activity at 20 nM were designated 3-D.

ERK = assay: pERK AlphaLISA assay (ERK phosphorylation, p-Erk1/2 Thr202/Tyr204) in HUVEC lysate; type: cell-based, human; conditions: HUVEC lysate of the pVEGFR assay; % activity, maximum VEGF165a signal = 100%, unstimulated = 0%; peptide 10, 100 nM (dimer structures 2-41)
Method: To evaluate the intracellular signaling activation ability of the VEGFR-2 agonist peptides of the present invention, ERK phosphorylation was verified. Using the lysate employed in the pVEGFR AlphaLISA assay, the assay was performed according to the protocol of the AlphaLISA SureFire Ultra p-Erk1/2 (Thr202/Tyr204) Assay Kit (PerkinElmer). Signal detection was performed using a SpectraMax Paradigm multimode microplate reader (Molecular Devices). The obtained signals were analyzed using GraphPad Prism, and % activity was calculated with the maximum signal induced by VEGF165a set as 100% and the unstimulated control as 0%.
The VEGF165a concentration was evaluated at five points (0.08, 0.31, 1.25, 5, 20 nM) using 1/4-fold dilutions starting from 20 nM to determine the maximum value (100%). Peptide concentrations tested were: 3.2, 16, 80 nM for dimer structure […], 100 nM for dimer structures numbers 2-41; and 1.25, 5, 20 nM for dimer structures numbers 42-57.
For % activity, peptides showing ≥50% activity at 3.2 nM were designated 1-A, those showing ≥50% activity at 16 nM were designated 1-B, those showing ≥50% activity at 80 nM were designated 1-C, and those showing ≥1% but <50% activity at 80 nM were designated 1-D. […]

[1] = peptide 1.25, 5, 20 nM (dimer structures 42-57)

T1 sequence (P35968 20-1356): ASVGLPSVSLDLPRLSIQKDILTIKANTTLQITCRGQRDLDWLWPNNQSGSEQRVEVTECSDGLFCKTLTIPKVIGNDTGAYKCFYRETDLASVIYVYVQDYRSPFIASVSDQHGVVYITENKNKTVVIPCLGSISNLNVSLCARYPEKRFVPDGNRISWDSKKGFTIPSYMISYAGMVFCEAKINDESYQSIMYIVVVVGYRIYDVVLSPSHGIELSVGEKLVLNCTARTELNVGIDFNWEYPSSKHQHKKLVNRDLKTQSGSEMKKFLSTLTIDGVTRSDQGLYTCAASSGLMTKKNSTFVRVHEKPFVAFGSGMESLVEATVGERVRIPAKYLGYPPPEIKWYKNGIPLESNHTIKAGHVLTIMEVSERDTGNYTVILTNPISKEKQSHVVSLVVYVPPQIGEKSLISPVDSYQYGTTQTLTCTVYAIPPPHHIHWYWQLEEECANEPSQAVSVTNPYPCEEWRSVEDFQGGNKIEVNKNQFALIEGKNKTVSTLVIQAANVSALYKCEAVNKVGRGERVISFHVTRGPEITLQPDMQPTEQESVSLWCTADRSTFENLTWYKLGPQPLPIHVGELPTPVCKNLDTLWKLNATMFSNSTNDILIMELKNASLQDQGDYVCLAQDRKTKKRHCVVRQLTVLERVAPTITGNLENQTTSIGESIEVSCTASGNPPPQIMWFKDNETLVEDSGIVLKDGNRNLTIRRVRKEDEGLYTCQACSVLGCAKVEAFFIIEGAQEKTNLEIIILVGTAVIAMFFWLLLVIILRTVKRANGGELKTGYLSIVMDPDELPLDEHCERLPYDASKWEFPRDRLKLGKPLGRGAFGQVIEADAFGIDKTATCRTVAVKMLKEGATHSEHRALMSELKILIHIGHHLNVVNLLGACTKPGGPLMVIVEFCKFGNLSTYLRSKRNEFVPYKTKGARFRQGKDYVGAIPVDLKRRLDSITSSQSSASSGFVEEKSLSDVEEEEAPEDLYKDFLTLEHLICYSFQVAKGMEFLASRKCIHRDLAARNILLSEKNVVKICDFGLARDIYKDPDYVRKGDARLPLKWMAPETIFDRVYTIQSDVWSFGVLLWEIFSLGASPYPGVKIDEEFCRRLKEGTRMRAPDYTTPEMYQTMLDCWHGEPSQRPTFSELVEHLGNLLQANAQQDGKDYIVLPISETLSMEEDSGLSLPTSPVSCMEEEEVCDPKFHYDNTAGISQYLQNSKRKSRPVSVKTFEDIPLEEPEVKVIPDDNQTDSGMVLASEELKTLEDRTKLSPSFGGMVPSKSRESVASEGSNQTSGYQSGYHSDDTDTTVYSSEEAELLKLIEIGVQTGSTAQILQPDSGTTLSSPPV

| SMILES | pVEGFR2 Assay Results (VEGFR-2; peptide 10, 100 nM (dimer structures 2-41)) | pERK Assay Results (ERK) | pVEGFR2 Assay Results (VEGFR-2; [1]) |
| --- | --- | --- | --- |
| CC(C)[C@@H]1NC(=O)CNC(=O)[C@H](CCCCNC(=O)OCCOCCOCCOCCOCCOCCOCCOCCOCCOCCOCCOCCOC(=O)NCCCC[C@@H]2NC(=O)[C@H](C(C)C)NC(=O)[C@H](CC(=O)O)NC(=O)[C@H](C(C)C)NC(=O)[C@H](Cc3c[nH]c4ccccc34)NC(=O)[C@H](Cc3c[nH]c4ccccc34)NC(=O)CSC[C@@H](C(=O)NCC(N)=O)NC(=O)[C@H](CC(=O)O)NC(=O)[C@H](CCc3ccc(O)cc3)NC(=O)[C@H](Cc3ccccc3)NC(=O)[C@H](Cc3ccc(O)cc3)NC(=O)[C@H](CC(N)=O)NC(=O)[C@H](C(C)C)NC(=O)CNC2=O)NC(=O)[C@H](C(C)C)NC(=O)[C@H](CC(=O)O)NC(=O)[C@H](C(C)C)NC(=O)[C@H](Cc2c[nH]c3ccccc23)NC(=O)[C@H](Cc2c[nH]c3ccccc23)NC(=O)CSC[C@@H](C(=O)NCC(N)=O)NC(=O)[C@H](CC(=O)O)NC(=O)[C@H](CCc2ccc(O)cc2)NC(=O)[C@H](Cc2ccccc2)NC(=O)[C@H](Cc2ccc(O)cc2)NC(=O)[C@H](CC(N)=O)NC1=O [compound 37] (I: {CH2CO}-WWVDVKGVNYF[hTyr]DCG-NH2 / II: {CH2CO}-WWVDVKGVNYF[hTyr]DCG-NH2; linker I:6-II:6 via X2; thioether I:N-I:14, II:N-II:14) | 2-A (50% or more activity at 10 nM) | 2-B (50% or more activity at 100 nM) |  |
| CC(C)C[C@@H]1NC(=O)[C@H](CC(=O)O)NC(=O)[C@H](CC(N)=O)NC(=O)[C@H](CCCCNC(=O)CCOCCOCCOCCOCCOCCOCCOCCOCCOCCOCCOCCOCCOCCOCCOCCOCCOCCC(=O)NCCCC[C@@H]2NC(=O)[C@H](C(C)C)NC(=O)[C@H](CC(=O)O)NC(=O)[C@H](C(C)(C)C)NC(=O)[C@H](Cc3c[nH]c4ccccc34)NC(=O)[C@H](Cc3c[nH]c4ccccc34)NC(=O)CSC[C@@H](C(=O)NCC(N)=O)NC(=O)[C@H](CC(=O)O)NC(=O)[C@H](CCc3ccc(O)cc3)NC(=O)[C@H](Cc3ccccc3)NC(=O)[C@H](Cc3ccc(O)cc3)NC(=O)[C@H](CC(C)C)NC(=O)[C@H](CC(=O)O)NC(=O)[C@H](CC(N)=O)NC2=O)NC(=O)[C@H](C(C)C)NC(=O)[C@H](CC(=O)O)NC(=O)[C@H](C(C)(C)C)NC(=O)[C@H](Cc2c[nH]c3ccccc23)NC(=O)[C@H](Cc2c[nH]c3ccccc23)NC(=O)CSC[C@@H](C(=O)NCC(N)=O)NC(=O)[C@H](CC(=O)O)NC(=O)[C@H](CCc2ccc(O)cc2)NC(=O)[C@H](Cc2ccccc2)NC(=O)[C@H](Cc2ccc(O)cc2)NC1=O [compound 47] (I: {CH2CO}-WW[Tle]DVKNDLYF[hTyr]DCG-NH2 / II: {CH2CO}-WW[Tle]DVKNDLYF[hTyr]DCG-NH2; linker I:6-II:6 via CO(CH2)2(OCH2CH2)17CO; thioether I:N-I:14, II:N-II:14) |  |  | 3-C (50% or more activity at 20 nM) |
| CC(C)[C@@H]1NC(=O)[C@H](CC(=O)O)NC(=O)[C@H](C(C)(C)C)NC(=O)[C@H](Cc2c[nH]c3ccccc23)NC(=O)[C@H](Cc2c[nH]c3ccccc23)NC(=O)CSC[C@@H](C(=O)NCC(N)=O)NC(=O)[C@H](CC(=O)O)NC(=O)[C@H](CCc2ccc(O)cc2)NC(=O)[C@H](Cc2ccc(NC(=N)N)cc2)NC(=O)[C@H](Cc2ccc(O)cc2)NC(=O)[C@H](CC(C)(C)C)NC(=O)[C@H](CC(=O)O)NC(=O)[C@H](CC(=O)O)NC(=O)[C@H](CCCCNC(=O)OCCOCCOCCOCCOCCOCCOCCOCCOCCOCCOCCOCCOCCOCCOCCOCCOC(=O)NCCCC[C@@H]2NC(=O)[C@H](C(C)C)NC(=O)[C@H](CC(=O)O)NC(=O)[C@H](C(C)(C)C)NC(=O)[C@H](Cc3c[nH]c4ccccc34)NC(=O)[C@H](Cc3c[nH]c4ccccc34)NC(=O)CSC[C@@H](C(=O)NCC(N)=O)NC(=O)[C@H](CC(=O)O)NC(=O)[C@H](CCc3ccc(O)cc3)NC(=O)[C@H](Cc3ccc(NC(=N)N)cc3)NC(=O)[C@H](Cc3ccc(O)cc3)NC(=O)[C@H](CC(C)(C)C)NC(=O)[C@H](CC(=O)O)NC(=O)[C@H](CC(=O)O)NC2=O)NC1=O [compound 53] (I: {CH2CO}-WW[Tle]DVKDD[tBuAla]Y[Phe(4-guanidino)][hTyr]DCG-NH2 / II: {CH2CO}-WW[Tle]DVKDD[tBuAla]Y[Phe(4-guanidino)][hTyr]DCG-NH2; linker I:6-II:6 via X1; thioether I:N-I:14, II:N-II:14) |  |  | 3-B (50% or more activity at 5 nM) |
| CC(C)[C@@H]1NC(=O)[C@H](CC(=O)O)NC(=O)[C@H](C(C)(C)C)NC(=O)[C@H](Cc2c[nH]c3ccccc23)NC(=O)[C@H](Cc2c[nH]c3ccccc23)NC(=O)CSC[C@@H](C(=O)NCC(N)=O)NC(=O)[C@@H]2C[C@@H](O)CN2C(=O)[C@H](CCc2ccc(O)cc2)NC(=O)[C@H](Cc2ccc(NC(=N)N)cc2)NC(=O)[C@H](Cc2ccc(O)cc2)NC(=O)[C@H](CC(C)(C)C)NC(=O)[C@H](CC(=O)O)NC(=O)[C@H](CC(=O)O)NC(=O)[C@H](CCCCNC(=O)OCCOCCOCCOCCOCCOCCOCCOCCOCCOCCOCCOCCOC(=O)NCCCC[C@@H]2NC(=O)[C@H](C(C)C)NC(=O)[C@H](CC(=O)O)NC(=O)[C@H](C(C)(C)C)NC(=O)[C@H](Cc3c[nH]c4ccccc34)NC(=O)[C@H](Cc3c[nH]c4ccccc34)NC(=O)CSC[C@@H](C(=O)NCC(N)=O)NC(=O)[C@@H]3C[C@@H](O)CN3C(=O)[C@H](CCc3ccc(O)cc3)NC(=O)[C@H](Cc3ccc(NC(=N)N)cc3)NC(=O)[C@H](Cc3ccc(O)cc3)NC(=O)[C@H](CC(C)(C)C)NC(=O)[C@H](CC(=O)O)NC(=O)[C@H](CC(=O)O)NC2=O)NC1=O [compound 54] (I: {CH2CO}-WW[Tle]DVKDD[tBuAla]Y[Phe(4-guanidino)][hTyr][Hyp]CG-NH2 / II: {CH2CO}-WW[Tle]DVKDD[tBuAla]Y[Phe(4-guanidino)][hTyr][Hyp]CG-NH2; linker I:6-II:6 via X2; thioether I:N-I:14, II:N-II:14) |  |  | 3-B (50% or more activity at 5 nM) |
| CC(C)[C@@H]1NC(=O)[C@H](CC(=O)O)NC(=O)[C@H](CCc2ccc(O)cc2)NC(=O)[C@H](Cc2c[nH]c3ccccc23)NC(=O)[C@H](Cc2c[nH]c3ccccc23)NC(=O)CSC[C@@H](C(=O)NCC(N)=O)NC(=O)[C@H](CC(=O)O)NC(=O)[C@H](CCc2ccc(O)cc2)NC(=O)[C@H](Cc2ccc(NC(=N)N)cc2)NC(=O)[C@H](Cc2ccc(O)cc2)NC(=O)[C@H](CC(C)(C)C)NC(=O)[C@H](CC(=O)O)NC(=O)[C@H](CC(=O)O)NC(=O)[C@H](CCCCNC(=O)OCCOCCOCCOCCOCCOCCOCCOCCOCCOCCOCCOCCOC(=O)NCCCC[C@@H]2NC(=O)[C@H](C(C)C)NC(=O)[C@H](CC(=O)O)NC(=O)[C@H](CCc3ccc(O)cc3)NC(=O)[C@H](Cc3c[nH]c4ccccc34)NC(=O)[C@H](Cc3c[nH]c4ccccc34)NC(=O)CSC[C@@H](C(=O)NCC(N)=O)NC(=O)[C@H](CC(=O)O)NC(=O)[C@H](CCc3ccc(O)cc3)NC(=O)[C@H](Cc3ccc(NC(=N)N)cc3)NC(=O)[C@H](Cc3ccc(O)cc3)NC(=O)[C@H](CC(C)(C)C)NC(=O)[C@H](CC(=O)O)NC(=O)[C@H](CC(=O)O)NC2=O)NC1=O [compound 57] (I: {CH2CO}-WW[hTyr]DVKDD[tBuAla]Y[Phe(4-guanidino)][hTyr]DCG-NH2 / II: {CH2CO}-WW[hTyr]DVKDD[tBuAla]Y[Phe(4-guanidino)][hTyr]DCG-NH2; linker I:6-II:6 via X2; thioether I:N-I:14, II:N-II:14) |  |  | 3-D (1% or more but less than 50% activity at 20 nM) |
